This experiment concerns the target NL-PRMT5 (NLuc-PRMT5) (Homo sapiens, UniProt O14744). Briefly: NanoBRET target engagement, displacement of CBH-002. The experiment is classed as cell-based. A general note: Bioluminescence resonance energy transfer reports proximity on the nanometre scale.

The structures appear in SMILES notation.

Chain of NL-PRMT5 (NLuc-PRMT5) (O14744 2-637): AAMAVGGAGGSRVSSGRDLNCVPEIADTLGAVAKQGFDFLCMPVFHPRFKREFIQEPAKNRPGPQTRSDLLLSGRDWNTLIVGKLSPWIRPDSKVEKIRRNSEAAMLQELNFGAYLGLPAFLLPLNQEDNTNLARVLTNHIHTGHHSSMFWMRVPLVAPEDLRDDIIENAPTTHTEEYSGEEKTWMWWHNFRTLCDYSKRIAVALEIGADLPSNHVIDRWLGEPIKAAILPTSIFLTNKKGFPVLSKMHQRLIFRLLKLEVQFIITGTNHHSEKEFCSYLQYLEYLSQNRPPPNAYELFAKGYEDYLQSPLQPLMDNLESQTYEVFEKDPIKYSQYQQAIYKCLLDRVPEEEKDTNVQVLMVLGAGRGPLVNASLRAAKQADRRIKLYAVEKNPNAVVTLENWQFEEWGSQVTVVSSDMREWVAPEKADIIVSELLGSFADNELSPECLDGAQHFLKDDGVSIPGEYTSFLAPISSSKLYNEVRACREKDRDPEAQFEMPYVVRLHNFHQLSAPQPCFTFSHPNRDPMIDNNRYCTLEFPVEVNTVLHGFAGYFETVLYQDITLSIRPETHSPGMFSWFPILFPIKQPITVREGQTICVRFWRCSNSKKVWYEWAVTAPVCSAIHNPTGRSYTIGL

As to `Nc1ncnc2c1ccn2[C@@H]1O[C@H]([C@H](O)c2ccccc2)[C@@H](O)[C@H]1O` [LLY-283], the EC50 (commonly the concentration needed to bring the measured effect to its halfway point) came out at 300 ± 100 nM.

The values above are taken from publication doi:10.1101/2022.01.20.477145v2 (biorxiv, 2022).
